In ChEMBL document CHEMBL4340572, “Gentiopicroside isolated from Gentiana scabra Bge. inhibits adipogenesis in 3T3-L1 cells and reduces body weight in diet-induced obese mice” (Bioorg Med Chem Lett, 2019):
Active and inactive are the calls of the source. The calls are words filed in the database; no cut-off is given here.

Experiments:
[1] = system: Mus musculus; assay: Antiobesity activity in HFD-induced obese C57BL/6N mouse model assessed as decrease in visceral fat mass at 50 mg/kg, po administered once daily for 12 weeks; type: functional, organism-based
[2] = system: Mus musculus; assay: Antiobesity activity in HFD-induced obese C57BL/6N mouse model assessed as decrease in body weight at 50 mg/kg, po administered once daily for 12 weeks and measured every week for 12 weeks; type: functional, organism-based
[3] = system: 3T3-L1; assay: Antiinflammatory activity in mouse 3T3L1 cells assessed as reduction in IL-6 mRNA expression up to 10 uM incubated for 8 days followed by compound wash out measured by RT-PCR method; type: functional, cell-based
[4] = system: 3T3-L1; assay: Downregulation of PPARgamma mRNA expression in mouse 3T3L1 cells up to 10 uM incubated for 8 days followed by compound wash out measured by RT-PCR method; type: functional, cell-based
[5] = system: 3T3-L1; assay: Downregulation of C/EBPalpha mRNA expression in mouse 3T3L1 cells up to 10 uM incubated for 8 days followed by compound wash out measured by RT-PCR method; type: functional, cell-based
[6] = system: Mus musculus; assay: Antiobesity activity in HFD-induced obese C57BL/6N mouse model assessed as decrease in epididymal fat mass level at 50 mg/kg, po administered once daily for 12 weeks; type: functional, organism-based
[7] = system: 3T3-L1; assay: Downregulation of LPL mRNA expression in mouse 3T3L1 cells up to 10 uM incubated for 8 days followed by compound wash out measured by RT-PCR method; type: functional, cell-based
[8] = system: 3T3-L1; assay: Downregulation of SREBP-1c mRNA expression in mouse 3T3L1 cells up to 10 uM incubated for 8 days followed by compound wash out measured by RT-PCR method; type: functional, cell-based
[9] = system: 3T3-L1; assay: Anti-adipogenic activity in mouse 3T3L1 cells grown in differentiation media assessed as decrease in lipid accumulation up to 10 uM incubated for 8 days by Oil Red O staining based method; type: functional
[10] = system: Mus musculus; assay: Antiobesity activity in HFD-induced obese C57BL/6N mouse model assessed as reduction in epididymal WAT adipocyte size at 50 mg/kg, po administered once daily for 12 weeks by H and E staining based microscopic method; type: functional, organism-based
[11] = system: 3T3-L1; assay: Downregulation of FAS mRNA expression in mouse 3T3L1 cells up to 10 uM incubated for 8 days followed by compound wash out measured by RT-PCR method; type: functional, cell-based
[12] = system: 3T3-L1; assay: Downregulation of FABP4 mRNA expression in mouse 3T3L1 cells up to 10 uM incubated for 8 days followed by compound wash out measured by RT-PCR method; type: functional, cell-based
[13] = system: 3T3-L1; assay: Downregulation of DGAT2 mRNA expression in mouse 3T3L1 cells up to 10 uM incubated for 8 days followed by compound wash out measured by RT-PCR method; type: functional, cell-based
[14] = system: 3T3-L1; assay: Antiinflammatory activity in mouse 3T3L1 cells assessed as reduction in TNFalpha mRNA expression up to 10 uM incubated for 8 days followed by compound wash out measured by RT-PCR method; type: functional, cell-based
[15] = system: 3T3-L1; assay: Inhibition of cell differentiation in mouse 3T3L1 cells assessed as reduction in pre-adipocyte differentiation into matured adipocytes at 5 uM incubated for 8 days followed by compound wash out measured by oil red O staining based method relative to control; type: functional; details: 3T3-L1, 192 h
[16] = system: 3T3-L1; assay: Anti-adipogenic activity in mouse 3T3L1 cells grown in differentiation media assessed as decrease in lipid accumulation incubated for 8 days by Oil Red O staining based method; type: functional, cell-based
[17] = system: 3T3-L1; assay: Antiinflammatory activity in mouse 3T3L1 cells assessed as reduction in NFkappaB1 mRNA expression level up to 10 uM incubated for 8 days followed by compound wash out measured by RT-PCR method; type: functional, cell-based
[18] = system: 3T3-L1; assay: Downregulation of SCD1 mRNA expression in mouse 3T3L1 cells up to 10 uM incubated for 8 days followed by compound wash out measured by RT-PCR method; type: functional, cell-based
[19] = system: 3T3-L1; assay: Cytotoxicity against mouse 3T3L1 cells assessed as reduction in cell viability up to 10 uM; type: cell-based

C=C[C@@H]1C2=CCOC(=O)C2=CO[C@H]1O[C@@H]1O[C@H](CO)[C@@H](O)[C@H](O)[C@H]1O [GENTIOPICROSIDE]
Activity [1]: Active
Activity [2]: Active
Activity [3]: Active
Activity [4]: Active
Activity [5]: Active
Activity [6]: Active
Activity [7]: Active
Activity [8]: Active
inhibition (INH) [9]: <=64%
Activity [10]: Active
Activity [11]: Active
Activity [12]: Active
Activity [13]: Active
Activity [14]: Active
inhibition at 5 µM [15]: ≤ 72%
Activity [16]: Dose-dependent effect
Activity [17]: Active
Activity [18]: Active
Activity [19]: Non-Toxic
